A short description of data set [1]: Inhibition of DNAK/CLPB (unknown origin) assessed as reactivation of malate dehydrogenase aggregates after 2 hrs in presence of Tween 80.
The nature of data set [2]: Binding affinity to CLPB (unknown origin) expressed in Escherichia coli MC4100 assessed as change in melting temperature at 100 to 200 uM after 30 mins by DSF analysis. A general note: In DSF a fluorescence change marks the thermal transition of the protein.
Data set [3] can be described thus: Inhibition of CLPB (unknown origin) expressed in Escherichia coli MC4100 using alpha-casein as substrate at 1 to 100 uM by spectrophotometric analysis.
Data set [4] is described as follows: Binding affinity to CLPB (unknown origin) expressed in Escherichia coli MC4100 assessed as change in melting temperature at 100 to 200 uM after 30 mins by DSF analysis in presence of ATPgammaS.
The nature of data set [5]: Binding affinity to CLPB (unknown origin) expressed in Escherichia coli MC4100 assessed as change in melting temperature at 100 to 200 uM after 30 mins by DSF analysis in presence of ATP.
A short description of data set [6]: Inhibition of DNAK/CLPB (unknown origin) assessed as reactivation of malate dehydrogenase aggregates after 2 hrs.
A short description of data set [7]: Binding affinity to CLPB E276A/E678A mutant (unknown origin)-alpha-casein complex expressed in Escherichia coli MC4100 at 0.1 to 1000 uM by titrimetric analysis.
The nature of data set [8]: Inhibition of DNAK (unknown origin) assessed as reactivation of luciferase aggregates after 2 hrs in presence of Tween 80.
Data set [9] can be described thus: Inhibition of DNAK (unknown origin) assessed as reactivation of luciferase aggregates after 2 hrs.
The nature of data set [10]: Binding affinity to CLPB (unknown origin) expressed in Escherichia coli MC4100 assessed as change in melting temperature at 100 to 200 uM after 30 mins by DSF analysis in presence of ADP.
Data set [11] in a line: Inhibition of CLPB (unknown origin) expressed in Escherichia coli MC4100 at 1 to 100 uM by spectrophotometric analysis.
Data set [12] has as its system Escherichia coli. The experiment in a line: Antibacterial activity against Escherichia coli MC4100 assessed as growth inhibition at 37 degC after 24 hrs by two-fold dilution method. The data set is classed as functional, organism-based.
Data set [13] deals with Escherichia coli. Kind of data set: Antibacterial activity against CLPB-deleted Escherichia coli MC4100 assessed as growth inhibition at 0.1 to 1000 uM at 37 to 47 degC after 24 hrs by two-fold dilution method in presence of paraquat. The data set is classed as functional, organism-based.
For data set [14], the system named is Escherichia coli. The experiment in a line: Antibacterial activity against CLPB-deleted Escherichia coli MC4100 assessed as growth inhibition at 37 degC after 24 hrs by two-fold dilution method. It is filed as functional, organism-based.
Data set [15] concerns Escherichia coli. Kind of data set: Antibacterial activity against Escherichia coli MC4100 assessed as growth inhibition at 42 degC after 24 hrs by two-fold dilution method in presence of paraquat. The data set is classed as functional. The following applies: MC4100, 24 h.
In data set [16] the test system is Escherichia coli. The experiment in a line: Antibacterial activity against Escherichia coli BL21(DE3) assessed as growth inhibition at 42 degC after 24 hrs by two-fold dilution method in presence of paraquat. It is filed as functional.
The nature of data set [17]: Binding affinity to CLPB (unknown origin) expressed in Escherichia coli MC4100 up to 400 seconds by surface plasmon resonance analysis. On the technique in general: In SPR one partner is held on a chip, and binding of the other changes the refractive index at the surface.
Data set [18] is described as follows: Reduction of ATPase activity of DNAK (unknown origin) at 100 uM by spectrophotometric analysis.
Data set [19] can be described thus: Binding affinity to CLPB E276A/E678A mutant (unknown origin) expressed in Escherichia coli MC4100 at 80 uM in presence of alpha-casein by spectrofluorimetric analysis.
The subject of data set [20] is Escherichia coli. Kind of data set: Antibacterial activity against Escherichia coli MC4100 assessed as growth inhibition at 0.1 to 1000 uM at 37 to 47 degC after 24 hrs by two-fold dilution method in presence of paraquat. It is filed as functional, organism-based.
A short description of data set [21]: Binding affinity to CLPB E276A/E678A mutant (unknown origin) expressed in Escherichia coli MC4100 assessed as change in melting temperature by DSF analysis.
A short description of data set [22]: Inhibition of ATPase activity of CLPB (unknown origin) expressed in Escherichia coli MC4100 using 20 to 100 uM alpha-casein as substrate at 1 to 100 uM by spectrophotometric analysis.
A short description of data set [23]: Inhibition of ATPase activity of CLPB (unknown origin) expressed in Escherichia coli MC4100 using 10 uM alpha-casein as substrate at 1 to 100 uM by spectrophotometric analysis.
Data set [24] concerns Escherichia coli. The experiment in a line: Antibacterial activity against Escherichia coli MC4100 assessed as reduction of CFU count at 300 uM at 42 degC after 24 hrs by two-fold dilution method. It is filed as functional.
In data set [25] the test system is Escherichia coli. Kind of data set: Antibacterial activity against CLPB-deleted Escherichia coli MC4100 assessed as reduction of CFU count at 300 uM at 37 degC after 24 hrs by two-fold dilution method. It is filed as functional, organism-based.
Data set [26] in a line: Cytotoxicity against CHO cells assessed as cell viability at 40 to 100 uM after 72 hrs by tetrazolium reduction assay relative to control. It is filed as cell-based, Cricetulus griseus. The following applies: chinese hamster, read-out: Activity.
Data set [27] has as its system Escherichia coli. Kind of data set: Antibacterial activity against Escherichia coli MC4100 assessed as reduction of CFU count at 300 uM at 37 degC after 24 hrs by two-fold dilution method in presence of paraquat. It is filed as functional.
Data set [28] is described as follows: Cytotoxicity against human HeLa cells assessed as cell viability at 40 to 100 uM after 72 hrs by tetrazolium reduction assay relative to control. Particulars: read-out: Activity. It is filed as cell-based.
Data set [29] can be described thus: Reduction of ATPase activity of DNAK (unknown origin) using ALLQSRLLLSAPRRAAATARY as substrate at 100 uM by spectrophotometric analysis relative to control in presence of cochaperone DnaJ.
For data set [30], the system named is Escherichia coli. Kind of data set: Antibacterial activity against Escherichia coli BL21(DE3) assessed as growth inhibition at 0.1 to 1000 uM at 37 to 47 degC after 24 hrs by two-fold dilution method in presence of paraquat. It is filed as functional.
Data set [31] deals with Escherichia coli. Kind of data set: Antibacterial activity against CLPB-deleted Escherichia coli MC4100 assessed as reduction of CFU count at 300 uM at 37 degC after 24 hrs by two-fold dilution method in presence of paraquat. It is filed as functional, organism-based.
A short description of data set [32]: Binding affinity to CLPB hexamer (unknown origin) expressed in Escherichia coli MC4100 at 100 uM by sedimentation equilibrium analysis.
The subject of data set [33] is Escherichia coli. Kind of data set: Antibacterial activity against TolC-deleted Escherichia coli JLS1015 at 37 to 47 degC after 7 hrs by two-fold dilution method. Particulars: JLS1015, 7 h. The data set is classed as functional.
A short description of data set [34]: Reduction of ATPase activity of DNAK (unknown origin) using ALLQSRLLLSAPRRAAATARY as substrate at 100 uM by spectrophotometric analysis relative to control in presence of cochaperone GrpE.
Data set [35] in a line: Effect on ATPase activity of DNAK (unknown origin) using ALLQSRLLLSAPRRAAATARY as substrate at 100 uM by spectrofluorimetric analysis.
In data set [36] the test system is Escherichia coli. Kind of data set: Antibacterial activity against Escherichia coli BL21(DE3) assessed as growth inhibition at 37 degC after 24 hrs by two-fold dilution method. It is filed as functional.

Values after ≈ are worked out from the molar mass of the structure shown. Active and inactive are the calls of the source. A value given as a limit tells only on which side of the number the result lay.

With `CCn1c(=O)c(C(=O)Nc2cccc(O)c2)c(O)c2ccccc21`, the half-inhibitory concentration (IC50) is 40 µM in [1], 65 µM in [6], over 100 µM in data set [8] and over 100 µM in data set [9]. Moreover, the thermal shift (ΔTm) is -0.8 °C in data set [2], -0.8 °C in data set [4], 2.2 °C in data set [5] and 1.5 °C in data set [10]. The inhibition entry in data set [3] and in data set [11] was “Active” throughout. Besides, in data set [7], the outcome was inactive.
With `O=Cc1cc(Cc2ccccc2Cl)cc([N+](=O)[O-])c1O`, the IC50 amounted to 6 µM in data set [1], 7 µM in data set [6], 6 µM in [8] and 4 µM in data set [9]. The “growth inhibition (GI)” value in data set [12], in [14], in data set [20] and in [30] was “Active” each time. For the same compound, the ΔTm in data set [2] came to 8.1 °C; in [4] it was 4.9 °C; in data set [5], 7.2 °C; in data set [10] it was 6.7 °C. The “growth inhibition (GI)” value in data set [13] was “inactive”. Besides, the values for the MIC in [15], in [16] and in data set [33] were 60 µM, 60 µM and 5 µM (≈ 1.46 µg/mL), respectively. The Kd turned out to be 12.9 µM in [17] and 12 µM in data set [21]. Besides, the result in [18], in data set [19], in data set [7] and in [32] was Active. Further, the inhibition entry in data set [22] and in [23] was “Active” in each case. Also, the log10cfu in data set [24] and in data set [27] was 2 in each case. Further, the outcome in [25], in data set [31] and in data set [35] was inactive. The viability at 72 h, up to 100 µM in data set [26] and in [28] was 50% each time. For the same compound, the fold change (FC) in data set [29] and in [34] was 7 each time.
With `CC1(C)S[C@@H]2[C@H](NC(=O)[C@H](N)c3ccccc3)C(=O)N2[C@H]1C(=O)O` [AMPICILLIN], in data set [36], the MIC was 2 µM (≈ 0.699 µg/mL).

Broadly, the IC50 is the concentration needed to halve the response being measured. In general, ΔTm refers to the shift of the melting midpoint relative to a reference. A word on the MIC: it is the smallest concentration in the dilution series that meets the test's criterion for growth inhibition. The Kd is a measure of binding affinity in units of concentration.

These data come from ChEMBL document CHEMBL2424520, “Screening and evaluation of small organic molecules as ClpB inhibitors and potential antimicrobials” (J Med Chem, 2013).
